Data reported in patent US20220023250A1, “ISOPROPYLCARBONATE BENZOYL PEROXIDE COMPOSITIONS AND METHODS OF USE” (Galderma Holding SA, priority 2019, published 2022).
Each block holds one compound with its values, some of them ahead of it.

How the values were obtained:
[1] = Maximum solubility in non-volatile part of vehicle gel and in reconstituted sebum; type: physicochemical; settings: for maximum solubility, TA reconstituted liquid sebum (22 H) / maximum solubility, TA reconstituted liquid sebum (extemporaneous): liquid fraction of the reconstituted sebum; for maximum solubility, TA reconstituted liquid sebum (22 H) / maximum solubility, TA non-volatile (22 H) / maximum solubility, Liquid sebum reconstituted at 32° C. (22 H): 22 H agitation; for maximum solubility, TA non-volatile (22 H): non-volatile part of the Composition A vehicle gel
Source text: In the case of active principles in dispersed form, these can dissolve after application, either in the sebum or in the non-volatile part of the formulation. […] (22 H agitation)

[2] = Compatibility of additives (keratolytic agents, opacifying agents) with 1% CD08467 gel based composition 0347.1000; type: physicochemical; settings: for compatibility of keratolytic agents: summary of Table 6; for Notes (reason of incompatibility): Table 6, keratolytic additive in gel 0347.1000
Method: For this study, the following gel based composition was tested:
The following keratolytic agents were tested with the gel based composition indicated above:
The goal of using an opacifier is to mainly “mask” the evolution of the orange-brown color that appears over time either or the orange color present from T0. […] The chemical and physical stabilities were evaluated over 3 months at RT and 40° C.
The following opacifying agents were tested with the gel based composition indicated above: […]

[3] = Compatibility with oils: chemical and physical stability of 2.5% formulations, 3 months RT and 40° C.; type: physicochemical
Method: To assess the possibility of a cream formulation that restores the cutaneous barrier, the compatibility of Isopropylcarbonate Benzoyl Peroxide with oils was assessed.
Further the chemical and physical stabilities of the formulations containing 2.5% Isopropylcarbonate Benzoyl Peroxide with various oils were assessed after storage at 3 months RT and 40° C. The value of 2.5% was chosen in order to allow for comparisons to an equivalent formulation containing 2.5% benzoyl peroxide instead of 2.5% Isopropylcarbonate Benzoyl Peroxide.

[4] = Maximum solubility of Isopropylcarbonate Benzoyl Peroxide in oils; type: physicochemical
Method: First, the maximum solubilities of Isopropylcarbonate Benzoyl Peroxide in various oils was assessed in the following table.

[5] = series with and without TiO2
[6] = in COS SILKFLO ® 366 (POLYDECENE, Non-polar)
[7] = in ISOSTEARYL ISOSTEARATE (Average polarity)
[8] = in PARLEAM ® (HYDROGENATED POLYISOBUTENE, Non-polar)
[9] = in PRIMOL ™ 352 (MINERAL OIL, Non-polar)
[10] = in SILICON FLUID 20CST (POLYDIMETHYLSILOXANE, Average polarity)
[11] = in ST-CYCLOMETHICONE 5 NF (Average polarity)

Compound: O=C(OOC(=O)c1ccccc1)c1ccccc1 [BPO, benzoyl peroxide]
maximum solubility, TA reconstituted liquid sebum (22 H) [1]: 1.4%
maximum solubility, TA reconstituted liquid sebum (extemporaneous) [1]: 1.1%
maximum solubility, TA non-volatile (22 H) [1]: 0.35%
maximum solubility, Liquid sebum reconstituted at 32° C. (22 H) [1]: 1.8%

Compound: O=P(O)(O)O[C@H]1[C@H](OP(=O)(O)O)[C@@H](OP(=O)(O)O)[C@H](OP(=O)(O)O)[C@@H](OP(=O)(O)O)[C@H]1OP(=O)(O)O [PHYTIC ACID]
compatibility of keratolytic agents [2]: compatible

Compound: NCCCC[C@H](N)C(=O)O [L-LYSINE]
Notes (reason of incompatibility) [2]: Strong coloration

Compound: CC(C)OC(=O)Oc1ccccc1C(=O)OOC(=O)c1ccccc1 [CD08467]
maximum solubility, TA reconstituted liquid sebum (22 H) [1]: 1.6%
maximum solubility, TA reconstituted liquid sebum (extemporaneous) [1]: 0.25%
maximum solubility, TA non-volatile (22 H) [1]: 0.25%
maximum solubility, Liquid sebum reconstituted at 32° C. (22 H) [1]: 1.6%
% Max. Solution [4, 6]: 0.1498%
% max sol. visual [4, 6]: 0.18%
% Max. Solution [4, 7]: 0.8679%
% max sol. visual [4, 7]: 1.39%
% Max. Solution [4, 8]: 0.1862%
% max sol. visual [4, 8]: 0.50%
% Max. Solution [4, 9]: 0.1867%
% max sol. visual [4, 9]: 0.41%
% Max. Solution [4, 10]: 0.0735%
% max sol. visual [4, 10]: 0.18%
% Max. Solution ([4]; in SQUALANE PE (Non-polar)): 0.1781%
% max sol. visual ([4]; in SQUALANE PE (Non-polar)): 0.18%
% Max. Solution [4, 11]: 0.1253%
% max sol. visual [4, 11]: 0.33%
% Max. Solution ([4]; in WATER (Polar)): Not measurable
% Max. Solution ([4]; meadowfoam seed oil): 1.2925%
% max sol. visual ([4]; meadowfoam seed oil): 1.96%

Compound: CC(O)C(=O)O (centres unmarked) [LACTIC ACID]
compatibility of keratolytic agents [2]: compatible

Compound: O=C([O-])CN(CCN(CC(=O)[O-])CC(=O)O)CC(=O)O.[Na+].[Na+] [disodium EDTA, disodium ethylenediaminetetraacetic acid (EDTA)]
effect of component on stability of the formulation [5]: counter the chemically instability

Compound: O=C(O)c1ccccc1O [SALICYLIC ACID]
Notes (reason of incompatibility) [2]: Fall in value 1 m

Now from value to compound:

compatibility of keratolytic agents [2]: compatible
Compound: O=C(O)CC(O)C(=O)O (centres unmarked) [MALIC ACID]

Notes (reason of incompatibility) [2]: Fall in value 1 m
compatibility of keratolytic agents [2]: compatible
Compound: O=C(O)CO [GLYCOLIC ACID]

Notes ([3]; Table 8, comparison with equivalent 2.5% benzoyl peroxide formulation): Intense orange coloration
Compound: C[Si]1(C)O[Si](C)(C)O[Si](C)(C)O[Si](C)(C)O[Si](C)(C)O1 [ST-CYCLOMETHICONE 5 NF, CYCLOMETHICONE 5]

compatibility of Isopropylcarbonate Benzoyl Peroxide with oils ([3]; Table 8): compatible
Compound: CC(C)CCCC(C)CCCC(C)CCCCC(C)CCCC(C)CCCC(C)C (centres unmarked) [SQUALANE PE]
